Experimental data published in article PMC4483166, “Structural Basis of Specific Recognition of Non-Reducing Terminal N-Acetylglucosamine by an Agrocybe aegerita Lectin” (PLoS ONE, 2015).
Where two headings read alike, the source gives them in different places.

How the values were obtained:
[1] = molecular target: T1, Agrocybe aegerita lectin 2 (AAL2) (Cyclocybe aegerita, UniProt H6CS64); test: crystal structure of the complex ([…] Å) and SPR steady-state affinity; format: binding
T1 construct: gene aal-2; recombinant AAL2 without any tag, expressed in E. coli BL21 (DE3); 407 amino acid residues
T1 sequence (H6CS64 1-407): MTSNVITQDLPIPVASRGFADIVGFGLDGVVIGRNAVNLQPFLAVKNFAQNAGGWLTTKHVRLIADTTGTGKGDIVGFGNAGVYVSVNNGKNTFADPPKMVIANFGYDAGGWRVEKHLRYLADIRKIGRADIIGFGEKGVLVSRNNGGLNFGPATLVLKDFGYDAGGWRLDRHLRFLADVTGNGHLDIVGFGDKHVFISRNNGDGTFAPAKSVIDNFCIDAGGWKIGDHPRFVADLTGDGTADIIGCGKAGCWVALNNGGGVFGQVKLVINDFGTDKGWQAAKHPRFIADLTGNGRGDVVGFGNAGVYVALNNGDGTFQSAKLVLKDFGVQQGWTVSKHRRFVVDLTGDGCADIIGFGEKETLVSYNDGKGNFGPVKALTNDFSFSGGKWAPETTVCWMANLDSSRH

[2] = molecular target: T1, Agrocybe aegerita lectin 2 (AAL2); test: as above; format: binding; remark: listed apart in the source

| SMILES | Kd [1] [µM] | Kd [2] [µM] |
| --- | --- | --- |
| CC(=O)N[C@@H]1[C@@H](O)[C@H](O)[C@@H](CO)O[C@H]1O [GlcNAc] | 28.3 |  |
| CC(=O)N[C@H]1[C@H](O[C@H]2[C@@H](O)[C@@H](CO)O[C@@H](O[C@H]3[C@H](O)[C@@H](NC(C)=O)C(O)O[C@@H]3CO)[C@@H]2O)O[C@H](CO)[C@@H](O)[C@@H]1O (some centres unmarked) [GlcNAcβ1-3Galβ1-4GlcNAc] |  | 41.7 |
